Experimental data taken from patent US20250092360A1, “METHODS AND COMPOSITIONS FOR GENERATING SOMATOSTATIN+ INTERNEURONS FROM HUMAN FOREBRAIN NEURAL PROGENITOR CELLS” (Trailhead Biosystems Inc., priority 2023, published 2025).
“And” between values parts separate entries of the source, which are not always exact repeats. Identical values can stand only once. “Also recorded” adds a separate entry of the source.

B1: BDNF: brain-derived neurotrophic factor; BDNF pathway agonist (protein, UniProt P23560 129-247, looked up)
Neurotrophic factor BDNF: HSDPARRGELSVCDSISEWVTAADKKTAVDMSGGTVTVLEKVPVSKGQLKQYFYETKCNPMGYTKEGCRGIDKRHWNSQCRTTQSYVRALTMDSKKRIGWRFIRIDTSCVCTLTIKRGR
modifications: Neurotrophic factor BDNF
notes: brain-derived neurotrophic factor; BDNF pathway agonist

What was measured:
[1] = system: forebrain-committed neural progenitor cells; experiment: HD-DoE stage 5, 8-factor experiment (JQ1, Indolactam-V ...): Somatostatin expression; assay type: cell-based, human; settings: for impact on expression of Somatostatin: FIG. 21/22, in words; for factor contribution, expression of Somatostatin: positive, 8-factor experiment of FIG. 21
Protocol: To further guide the differentiation of forebrain-committed neural progenitor cells to somatostatin interneuron cells at stage 5, HD-DoE experiments were performed for 3 days after termination of stage 4 treatment. At this time, we focused on maximum expression of SST that was expressed in Somatostatin (+) interneurons and minimum expression of Parvalbumin that is another type of interneurons. This 8-factor experiment included JQ1, (−)-Indolactam-V, Oleic acid, BDNF, IGF-1, 2-phospho-L-Ascorbic acid, Albumax, MK2206. When the model was maximized for expression of Somatostatin, six effectors were identified that could increase its expression levels, including (−)-Indolactam-V, Oleic acid, BDNF, 2-phospho-L-ascorbic acid, Albumax, and MK2206, as shown in FIG. 21. Using dynamic profile analysis, the results of which are shown in FIG. 22, the model was modified to achieve the maximum expression level of Somatostatin and therefore (−)-Indolactam-V, BDNF, and 2-phospho-L-ascorbic acid were included while JQ-1, Oleic acid, Albumax and MK2206 were excluded. Considering the model at different optimization settings for maximum differentiation of cells toward ventral forebrain, the recipe for stage 5 of differentiation included (−)-Indolactam-V, BDNF, IGF-1, and 2-phospho-L-ascorbic acid from this HD-Doe experiment.

[2] = system: forebrain-committed neural progenitor cells; experiment: HD-DoE stage 5, 12-factor experiment (96 combinatorial media): Somatostatin expression; assay type: cell-based, human; settings: for impact on expression of Somatostatin: FIG. 26 dynamic profile, in words; for factor contribution, expression of Somatostatin: positive, 12-factor experiment of FIG. 25
Protocol: In another HD-DoE experiment, the results of which are shown in FIG. 25, cells were differentiated in 96 different combinatorial media made of 12 factors. These cells were treated with stage 1 to stage 4 medium for a total of 12 days prior to the experiment. […] In this model, we focused on maximum expression of Somatostatin gene expressed in somatostatin (+) interneurons. When the model was optimized for maximum expression of Somatostatin, BDNF, 2-phosph-L-Ascorbic Acid, O-LPA, N2 and Prostratin had the highest factor contributions, 1.75, 10.6, 2.7, 9.2 and 6.4 respectively. […]

[3] = system: forebrain-committed neural progenitor cells; experiment: Factor criticality analysis, stage 5 recipe; assay type: cell-based, human; settings: for contribution to the expression of SST: stage 5, experiment of FIG. 28, in words; for effect on PVALB expression / effect on Somatostatin expression: stage 5, experiment of FIG. 30, in words
Protocol: To assess the impact of elimination of each validated factor, dynamic profile analysis was again used to compare the expression levels of genes of interest in the absence of each finalized factor while the others were present in the media.
In the stage 5 recipe, each of seven finalized factors was removed while the other six factors remained present in the media and the expression levels of SST and PVALB were assessed compared to the presence of all seven factors. […] Thus, BDNF, (−)-Indolactam-V, and 2-phosph-L-Ascorbic Acid were included in the stage 5 recipe. […] Thus, they were excluded from the recipe. […] Therefore, these effectors were included in the stage 5 recipe for SST maturation.

[4] = system: forebrain-committed neural stem cells; experiment: HD-DoE stage 2, 12-factor experiment: NKX2-1 expression; assay type: cell-based, human; settings: for impact on expression of NKX2-1: model / dynamic profile, in words
Protocol: To further guide the differentiation of forebrain-committed neural stem cells to ventral forebrain neural stem cells at stage 2, a HD-DoE experiment was performed for 3 days after termination of stage 1 treatment. […] This 12-factor experiment included LDN193189, BMP7, PD0325901, MK2206, A8301, XAV939, CHIR99021, Purmorphamine, SANT-1, AGN193109, TTNPB and GSI-XX. […]

[5] = system: human pluripotent stem cells; experiment: HD-DoE stage 1, first 12-factor experiment: gene expression (qPCR) after 3-day treatment; assay type: cell-based
Description: This example utilizes a method of High-Dimensional Design of Experiments (HD-DoE), as previously described in Bukys et al. (2020) […] 23:101346. The method employs computerized design geometries to simultaneously test multiple process inputs and offers mathematical modeling of a deep effector/response space. The method allows for finding combinatorial signaling inputs that control a complex process, such as during cell differentiation. It allows testing of multiple plausible critical process parameters, as such parameters impact output responses, such as gene expression. Because gene expression provides hallmark features of the phenotype of, for example, a human cell, the method can be applied to identify, and understand, which signaling pathways control cell fate. In the current example, the HD-DOE method was applied with the intent to find conditions for induction of […] neural progenitor-expressed genes, directly from the pluripotent stem cell state. To develop the recipe for each stage, the impact of agonists and antagonists of multiple signaling pathways (herein called effectors) on the expression of two sets of 53 pre-selected genes, after a 3-day treatment, has been tested and modeled. These effectors are small molecules or proteins that are commonly used during stepwise differentiation of stem cells to specific fates. Choice of the effectors were based on current literature on neural induction in forebrain region of developing brain and differentiation of stem cells to neural progenitors. To test the effectors, experiments with at least 8 factors were designed that can assess the response of cells to 48 or more different combinations of effectors in a range of concentrations. To analyze the models, we focused on expression of genes involved in development and patterning of the anterior neuroectoderm and forebrain including OTX2 (Hoch et al. (2015) Cell Reports 12:482-494), SIX3 (Lagutin et al. (2003) Genes & Development 17:368-379) and FEZF2 (Zhang et al. (2014) Development 141:4794-[…]). At later stages we focused on dorsoventral patterning of telencephalon and gene expressed in ventral forebrain including NKX2-1 and absence of PAX6 which is a dorsal forebrain marker (Stoykova et al. (2000) J. Neurosci. 20:8042-8050). The impact of each effector on gene expression level is defined by a parameter called factor contribution that is calculated for each effector during the modeling. To identify the recipe for stage 1 of differentiation, 96 different combinations of effectors generated using Design-of-Experiments compression through D-optimality were robotically prepared. The effector combinations were prepared in a basal media and were subsequently added to the cells, which were then allowed to differentiate. Three days later RNA extraction was performed, and gene expression was obtained using quantitative PCR analysis. The data were normalized and modeled using partial least squares regression analysis to the effector design, resulting in the generation of gene-specific models, which after model tuning for maximal Q2 predictive power, provided explanation of the effectors ability to control the expression of individual genes, combinatorically, and individually. Solutions within the tested space could then be explored to address desirability. Optimizing for maximal expression of SIX3 at 3300 and FEZF2 1355 expression values led to robust solutions. This model was derived from testing 12 effectors including AGN193109, LDN193189, CHIR99021, XAV939, IGF2, Purmorphamine, 4-oxo-RA, TTNPB, SR11237, FGF8, PD0325901 and […]. […] The model was also optimized for maximum expression of FEZF2 separately at 3576 expression value to find any additional factors that can boost expression of forebrain genes. […] To find the set of factors that have the potential to optimize all 3 genes in this experiment, a new assessment was done through dynamic profile analysis with focus on maximal expression of OTX2, FEZF2 and SIX3.

[6] = system: forebrain-committed neural progenitor cells; experiment: HD-DoE stage 5, 8-factor experiment (GDNF, BDNF, NT-3 ...): Somatostatin expression; assay type: cell-based, human
Protocol: To investigate the effects of other factors on differentiation of forebrain-committed neural progenitor cells to Somatostatin interneuron cells, an additional HD-DoE experiment was performed for 3 days on cells that were treated with stage 1 to stage 4 medium for a total of 12 days prior to the new experiment. This experiment, the results of which are shown in FIG. 23, included eight effectors, GDNF, BDNF, NT-3, ß-NGF, Linoleic acid, 5-Cholesten-3β, LIF and TGF-β3. In this model, we focused on maximum expression of Somatostatin gene expressed in Somatostatin (+) interneurons (Urban-Ciecko and Barth (2016) Nature Reviews Neurosci. 17:401-409). When the model was optimized for maximum expression of Somatostatin, BDNF, NT-3, beta-NGF and Linoleic acid had the highest factor contributions, 25.7, 2, 19.9, 23.5, respectively.
Therefore, the latter were excluded in the recipe.

Molecule	impact on expression of Somatostatin [1]	factor contribution, expression of Somatostatin [1]	factor contribution, expression of Somatostatin [2]	contribution to the expression of SST [3]	effect on PVALB expression [3]	effect on Somatostatin expression [3]	impact on expression of Somatostatin [2]	also measured
O=C1O[C@H]([C@@H](O)CO)C(O)=C1OP(=O)(O)O [2-phospho-L-ascorbic acid]	increase	4	10.6	positive contributions	not to PVALB expression	contribute	–	impact on expression of Somatostatin ([1]; listed as 2-phospho-L-Ascorbic acid): positive impact; impact on expression of Somatostatin ([2]; listed as 2-phosph-L-Ascorbic Acid): significant positive effect; also recorded: positive impact
Cc1cc(SCc2sc(-c3ccc(C(F)(F)F)c(F)c3)nc2C)ccc1OCC(=O)O [GW0742]	–	–	–	–	–	–	significant negative impact	–
CCCCCCCC/C=C\CCCCCCCC(=O)OC[C@@H](O)COP(=O)(O)O [O-LPA]	–	–	2.7	–	–	–	–	–
CC(=O)O[C@@]12C[C@@H](C)[C@@]3(O)[C@@H](C=C(CO)C[C@]4(O)C(=O)C(C)=C[C@@H]34)[C@@H]1C2(C)C [Prostratin]	–	–	6.4	–	not to PVALB expression	contribute	significant positive effect; also recorded: positive impact	–
Cc1nn(-c2ccccc2)c(C)c1/C=N/N1CCN(Cc2ccccc2)CC1 [SANT-1]	–	–	–	–	–	–	–	impact on expression of NKX2-1 [4]: negative impact; factor contribution, expression of NKX2-1 ([4]; negative role, model optimized for maximum NKX2-1): 26.3
CC(=O)C(=O)[O-].[Na+] [Sodium Pyruvate]	–	–	–	–	–	–	significant negative impact	–
C/C(=C\c1ccc(C(=O)O)cc1)c1ccc2c(c1)C(C)(C)CCC2(C)C [TTNPB]	–	–	–	–	–	–	–	factor contribution, important input for high expression of SIX3 ([5]; FIG. 2 legend): 23.7; impact on expression of OTX2 ([5]; dynamic profile / model, in words): negative impact; impact on expression of SIX3 ([5]; dynamic profile analysis, in words): negative impact; factor contribution, expression of SIX3 ([5]; negative effect, model optimized for maximal SIX3): 21; factor contribution, expression of OTX2 ([5]; negative impact, model optimized for maximum OTX2): 29 and 28.8; factor contribution, expression of FEZF2 ([5]; positive impact, model optimized for maximum FEZF2 at 3576): 24; impact on expression of NKX2-1 [4]: negative impact
COC(=O)CCC(=O)C(=O)OC [dm-αKG]	–	–	–	–	–	–	significant negative impact	–
(−)-Indolactam-V	increase; also recorded: positive impact	5.2	–	positive contributions	–	–	–	–
B1	increase; also recorded: positive impact	8.1	1.75 and 1.7	positive contributions	not to PVALB expression	contribute	significant positive effect; also recorded: positive impact	impact on expression of Somatostatin ([6]; FIG. 24 dynamic profile, in words): significant effect; also recorded: positive effect; also recorded: positive impact; factor contribution, expression of Somatostatin ([6]; positive, 8-factor experiment of FIG. 23): 25.7; effect on expression of Somatostatin ([3]; stage 5, experiment of FIG. 29, in words): contribute to the maximal expression
